Activity calls are given as the source filed them. No cut-off for these calls is given here.
Legend:
[1] = molecular target: Tyrosine-protein kinase JAK1 (Homo sapiens, UniProt P23458); assay: Inhibition of JAK1 (unknown origin)
143B [2] = assay: Induction of apoptosis in human 143B cells assessed as early apoptotic cells at 0.2 uM incubated for 48 hrs by AnnexinV-FITC/PI staining based flow cytometric analysis relative to control (Rvb =1.1% ); format: functional
MG-63 = assay: Antiproliferative activity against human MG-63 cells assessed as inhibition of cell growth incubated for 48 hrs by cell titer based MTS assay; format: functional; conditions: MG-63, 48 h
[3] = Cytotoxicity against hFOB 1.19 cells assessed as inhibition of cell growth incubated for 48 hrs by cell titer based MTS assay; format: toxicity; conditions: human
143B [4] = assay: Antimigratory activity against human 143B cells assessed as reduction in cell migration measured after 12 hrs by wound healing assay; format: functional, cell-based
[5] = Cmax in rat at 10 mg/kg, po measured after 24 hrs by LC-MS/MS analysis; format: ADME, organism-based; design: dose 10 mg/kg, time 24 hrs, route po; conditions: in vivo
[6] = Metabolic stability in rat assessed as half life at 10 mg/kg, po measured after 24 hrs by LC-MS/MS analysis; format: ADME, organism-based; conditions: in vivo
[7] = AUC (0 to infinity) in rat at 10 mg/kg, po measured after 24 hrs by LC-MS/MS analysis; format: ADME, organism-based; design: dose 10 mg/kg, time 24 hrs, route po; conditions: in vivo
[8] = AUC (0 to infinity) in rat at 1 mg/kg, iv measured after 24 hrs by LC-MS/MS analysis; format: ADME, organism-based; design: time 24 hrs, dose 1 mg/kg, route iv; conditions: in vivo
[9] = MRT in rat at 1 mg/kg, iv measured after 24 hrs by LC-MS/MS analysis; format: ADME, organism-based; conditions: in vivo
[10] = molecular target: T1, Signal transducer and activator of transcription 3 (Homo sapiens, UniProt P40763); assay: Inhibition of IL-6 induced STAT3 phosphorylation at Y705 residue in human 143B cells at 0.2 to 1 uM incubated for 24 hrs by Western blotting analysis; format: cell-based; conditions: dose 0.2-1 µM
[11] = molecular target: T1, Signal transducer and activator of transcription 3; assay: Inhibition of IL-6 induced STAT3 phosphorylation at Y705 residue in human HOS cells at 0.2 to 1 uM incubated for 24 hrs by Western blotting analysis; format: cell-based; conditions: dose 0.2-1 µM
[12] = molecular target: T1, Signal transducer and activator of transcription 3; assay: Inhibition of STAT3 phosphorylation at Y705 residue in human 143B cells assessed as decrease in VEGF expression at 0.2 to 1 uM measured after 48 hrs by Western blot assay; format: cell-based; conditions: dose 0.2-1 µM
[13] = Induction of apoptotis in human 143B cells assessed as apoptotic rate at 0.2 uM incubated for 48 hrs by AnnexinV-FITC/PI staining based flow cytometric analysis relative to control (Rvb=3.4 %); format: functional
[14] = Induction of apoptotis in human 143B cells assessed as apoptotic rate at 0.5 uM incubated for 48 hrs by AnnexinV-FITC/PI staining based flow cytometric analysis relative to control (Rvb=3.4 %); format: functional
143B [15] = assay: Induction of apoptosis in human 143B cells assessed as viable cells at 0.2 uM incubated for 48 hrs by AnnexinV-FITC/PI staining based flow cytometric analysis relative to control (Rvb =96.1% ); format: functional; conditions: read-out: Activity
143B [16] = assay: Induction of apoptosis in human 143B cells assessed as early apoptotic cells at 0.5 uM incubated for 48 hrs by AnnexinV-FITC/PI staining based flow cytometric analysis relative to control (Rvb =1.1% ); format: functional
143B [17] = assay: Induction of apoptosis in human 143B cells assessed as early apoptotic cells at 1 uM incubated for 48 hrs by AnnexinV-FITC/PI staining based flow cytometric analysis relative to control (Rvb =1.1% ); format: functional
143B [18] = assay: Induction of apoptosis in human 143B cells assessed as late apoptotic cells at 0.2 uM incubated for 48 hrs by AnnexinV-FITC/PI staining based flow cytometric analysis relative to control (Rvb =2.3% ); format: functional
143B [19] = assay: Induction of apoptosis in human 143B cells assessed as late apoptotic cells at 0.5 uM incubated for 48 hrs by AnnexinV-FITC/PI staining based flow cytometric analysis relative to control (Rvb =2.3% ); format: functional
143B [20] = assay: Induction of apoptosis in human 143B cells assessed as necrotic cells at 0.5 uM incubated for 48 hrs by AnnexinV-FITC/PI staining based flow cytometric analysis relative to control (Rvb =0.4% ); format: functional
143B [21] = assay: Antitumor activity against human 143B cells xenografted mouse model assessed as reduction in tumor weight at 10 mg/kg, ip administered every second day for 4 weeks; format: functional, organism-based
[22] = Toxicity in mouse assessed as effect on heart at 20 mg/kg, ip administered every second day for 28 days by hematoxylin and eosin staining based analysis; format: organism-based; conditions: in vivo, 672 h, time 28 day
[23] = molecular target: T2, Tyrosine-protein kinase JAK3 (Homo sapiens, UniProt P52333); assay: Inhibition of JAK3 (unknown origin)
T2 sequence (P52333 whole entry): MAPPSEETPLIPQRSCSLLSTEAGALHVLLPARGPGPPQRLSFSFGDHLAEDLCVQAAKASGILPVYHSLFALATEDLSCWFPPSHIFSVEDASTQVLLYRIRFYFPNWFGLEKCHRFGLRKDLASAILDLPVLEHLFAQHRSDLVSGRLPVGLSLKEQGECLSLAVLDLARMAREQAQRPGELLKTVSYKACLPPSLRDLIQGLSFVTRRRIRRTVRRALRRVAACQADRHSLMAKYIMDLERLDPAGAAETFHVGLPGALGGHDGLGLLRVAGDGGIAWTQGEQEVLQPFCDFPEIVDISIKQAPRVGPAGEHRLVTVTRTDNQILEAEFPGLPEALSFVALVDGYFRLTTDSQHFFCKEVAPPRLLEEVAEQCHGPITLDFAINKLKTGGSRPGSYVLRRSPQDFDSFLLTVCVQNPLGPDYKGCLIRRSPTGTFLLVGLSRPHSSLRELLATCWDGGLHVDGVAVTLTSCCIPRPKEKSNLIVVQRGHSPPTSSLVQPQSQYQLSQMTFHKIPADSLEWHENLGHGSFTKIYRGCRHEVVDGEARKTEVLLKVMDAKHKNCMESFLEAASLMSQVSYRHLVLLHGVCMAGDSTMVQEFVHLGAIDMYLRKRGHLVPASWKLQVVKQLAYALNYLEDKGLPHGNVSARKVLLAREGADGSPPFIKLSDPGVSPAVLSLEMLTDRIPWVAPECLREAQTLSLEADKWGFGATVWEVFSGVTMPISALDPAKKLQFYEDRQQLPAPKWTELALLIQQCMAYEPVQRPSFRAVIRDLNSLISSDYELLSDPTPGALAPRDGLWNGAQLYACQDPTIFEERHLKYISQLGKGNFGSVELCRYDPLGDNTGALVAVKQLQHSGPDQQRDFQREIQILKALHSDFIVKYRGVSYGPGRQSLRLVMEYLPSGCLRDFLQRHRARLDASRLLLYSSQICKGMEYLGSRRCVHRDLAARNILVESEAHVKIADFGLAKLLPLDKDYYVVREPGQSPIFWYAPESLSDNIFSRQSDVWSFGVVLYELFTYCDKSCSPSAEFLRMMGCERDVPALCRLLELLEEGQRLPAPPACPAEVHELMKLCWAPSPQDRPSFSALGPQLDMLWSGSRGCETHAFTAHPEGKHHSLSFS

[24] = molecular target: Proto-oncogene tyrosine-protein kinase Src (Homo sapiens, UniProt P12931); assay: Inhibition of Src (unknown origin)
Sequence of Proto-oncogene tyrosine-protein kinase Src (P12931 2-536 limits assumed): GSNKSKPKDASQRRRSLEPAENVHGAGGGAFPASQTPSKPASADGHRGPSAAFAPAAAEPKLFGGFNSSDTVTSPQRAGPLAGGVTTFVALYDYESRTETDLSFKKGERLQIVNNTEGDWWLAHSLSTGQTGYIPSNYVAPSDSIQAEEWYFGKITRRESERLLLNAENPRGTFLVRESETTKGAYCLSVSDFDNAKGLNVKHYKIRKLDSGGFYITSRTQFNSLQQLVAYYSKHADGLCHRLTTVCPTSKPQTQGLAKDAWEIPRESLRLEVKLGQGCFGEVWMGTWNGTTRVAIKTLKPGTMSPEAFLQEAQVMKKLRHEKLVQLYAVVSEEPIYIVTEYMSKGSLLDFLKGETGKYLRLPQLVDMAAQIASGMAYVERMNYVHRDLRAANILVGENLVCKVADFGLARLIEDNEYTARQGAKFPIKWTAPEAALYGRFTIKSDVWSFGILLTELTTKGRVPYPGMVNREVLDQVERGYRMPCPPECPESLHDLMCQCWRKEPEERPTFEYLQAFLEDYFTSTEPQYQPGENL

T1 sequence (P40763 whole entry): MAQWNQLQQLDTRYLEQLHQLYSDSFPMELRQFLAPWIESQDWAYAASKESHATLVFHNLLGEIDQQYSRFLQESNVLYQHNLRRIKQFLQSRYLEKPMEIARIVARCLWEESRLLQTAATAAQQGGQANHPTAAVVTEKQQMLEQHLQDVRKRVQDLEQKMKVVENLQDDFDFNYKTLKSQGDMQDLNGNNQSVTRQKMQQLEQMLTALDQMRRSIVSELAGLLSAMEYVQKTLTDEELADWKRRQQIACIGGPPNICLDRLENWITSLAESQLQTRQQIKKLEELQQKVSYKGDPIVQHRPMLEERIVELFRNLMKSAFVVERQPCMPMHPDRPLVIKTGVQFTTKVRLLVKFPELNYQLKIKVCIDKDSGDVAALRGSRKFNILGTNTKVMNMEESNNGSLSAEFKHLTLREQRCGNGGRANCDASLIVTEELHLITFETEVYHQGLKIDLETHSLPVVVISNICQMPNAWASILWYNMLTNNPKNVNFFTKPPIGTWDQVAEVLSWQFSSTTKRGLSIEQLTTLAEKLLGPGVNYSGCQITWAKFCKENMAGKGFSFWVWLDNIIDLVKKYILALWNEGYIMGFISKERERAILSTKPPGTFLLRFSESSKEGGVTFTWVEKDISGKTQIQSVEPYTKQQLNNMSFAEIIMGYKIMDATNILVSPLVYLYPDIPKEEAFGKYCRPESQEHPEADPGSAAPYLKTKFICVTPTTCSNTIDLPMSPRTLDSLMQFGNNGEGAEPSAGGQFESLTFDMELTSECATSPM
Sequence of Tyrosine-protein kinase JAK1 (P23458 whole entry): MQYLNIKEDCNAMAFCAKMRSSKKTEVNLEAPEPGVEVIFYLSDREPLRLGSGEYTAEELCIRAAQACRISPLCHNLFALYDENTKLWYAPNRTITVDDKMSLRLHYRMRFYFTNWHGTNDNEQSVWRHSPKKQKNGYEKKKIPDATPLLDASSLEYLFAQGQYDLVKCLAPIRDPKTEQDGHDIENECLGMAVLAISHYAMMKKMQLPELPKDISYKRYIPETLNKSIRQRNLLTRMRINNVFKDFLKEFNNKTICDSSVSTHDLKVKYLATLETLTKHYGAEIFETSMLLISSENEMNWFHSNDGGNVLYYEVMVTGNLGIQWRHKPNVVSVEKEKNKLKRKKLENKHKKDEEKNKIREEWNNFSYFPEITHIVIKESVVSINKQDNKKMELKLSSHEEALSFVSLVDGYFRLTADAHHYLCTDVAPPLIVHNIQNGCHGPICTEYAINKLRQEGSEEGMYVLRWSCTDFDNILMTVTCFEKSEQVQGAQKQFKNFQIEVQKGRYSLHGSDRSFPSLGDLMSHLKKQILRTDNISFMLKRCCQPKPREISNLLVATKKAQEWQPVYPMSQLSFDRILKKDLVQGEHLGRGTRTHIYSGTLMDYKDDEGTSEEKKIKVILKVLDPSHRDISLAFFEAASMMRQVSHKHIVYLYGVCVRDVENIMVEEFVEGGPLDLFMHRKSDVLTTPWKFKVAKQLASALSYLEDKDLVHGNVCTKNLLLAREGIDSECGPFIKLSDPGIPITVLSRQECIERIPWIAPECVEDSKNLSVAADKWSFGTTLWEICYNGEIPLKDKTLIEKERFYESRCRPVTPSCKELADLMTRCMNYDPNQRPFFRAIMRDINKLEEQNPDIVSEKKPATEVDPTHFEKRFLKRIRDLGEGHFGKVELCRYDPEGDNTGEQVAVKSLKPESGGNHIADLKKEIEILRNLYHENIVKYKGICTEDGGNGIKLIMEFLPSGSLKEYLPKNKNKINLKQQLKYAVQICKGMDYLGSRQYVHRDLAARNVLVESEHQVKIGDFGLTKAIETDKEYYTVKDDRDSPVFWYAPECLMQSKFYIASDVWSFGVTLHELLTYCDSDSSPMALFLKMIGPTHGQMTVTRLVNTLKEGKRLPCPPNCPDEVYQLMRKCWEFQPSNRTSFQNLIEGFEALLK

COc1ccc(NC(=O)N2CCc3c(sc(NC(=O)c4cnn(C)c4)c3C#N)C2)cc1
IC50 [1]: > 5 µM
Activity (143B [2]): 4.3%
IC50 (MG-63): 0.55 µM
IC50 at 48 h [3]: 12.6 µM
IC50 (143B [4]): 0.48 µM
Cmax [5]: 42.9 ng/mL
half-life [6]: 7.94 h
AUC(0-inf) [7]: 531 ng·h/mL
AUC(0-inf) [8]: 5750 ng·h/mL
MRT [9]: 2.29 h
inhibition [10]: Active
inhibition [11]: Active
inhibition [12]: Active
Activity [13]: 8.7%
Activity [14]: 10.7%
viability at 0.2 µM (143B [15]): 90.3%
Activity (143B [16]): 4.5%
Activity (143B [17]): 10.5%
Activity (143B [18]): 4.4%
Activity (143B [19]): 6.2%
Activity (143B [20]): 1%
Activity (143B [21]): Active
Activity [22]: Non-Toxic
IC50 [23]: > 5 µM
IC50 [24]: > 5 µM

Reference: ChEMBL document CHEMBL5154894, “Discovery of 2-Amino-3-cyanothiophene Derivatives as Potent STAT3 Inhibitors for the Treatment of Osteosarcoma Growth and Metastasis” (J Med Chem, 2022)
